Assay results taken from EP1247803A2, “Indolinone compounds suitable for modulation of protein kinases” (Sugen, Inc., priority 1996, dated 1998).

How the values were obtained:
FLK-1 receptor = molecular target: T1, FLK-1 receptor (Mus musculus, UniProt P35918); experiment: FLK-1 ELISA (kinase activity of the FLK-1 receptor in FLK-1/NIH3T3 cells, VEGF stimulated); assay type: cell-based
T1 construct: expressed in transfected cells; host or cells: NIH3T3 C7#3
Method in brief: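 An ELISA using affinity-purified rabbit anti-FLK-1 antiserum on anti-rabbit IgG-coated plates measured VEGF-stimulated FLK-1 kinase activity. NIH3T3 C7#3 cells carrying FLK-1 were serum-starved (0.1% FBS) overnight, then exposed to compound (final 1:200 dilution, 0.5% DMSO) for two hours at 37 °C.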

MET = MET biochemical kinase assay; design: species or system human; concentration or dose not given beside the values
Method in brief: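 Plates coated with anti-rabbit Fc bind a rabbit anti-MET antibody that captures receptor from cell lysates; unbound protein is washed off before compound and ATP-containing kinase buffer go in.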

PDGF-R = PDGF-R (Homo sapiens, UniProt P09619); experiment: PDGF-R ELISA; assay type: cell-based
Text: A PDGF-R ELISA is described in International Patent Publication No. WO 96/40116, published December 19, 1996 by Tang et al.

Sequence of PDGF-R (P09619 33-1106, species assumed): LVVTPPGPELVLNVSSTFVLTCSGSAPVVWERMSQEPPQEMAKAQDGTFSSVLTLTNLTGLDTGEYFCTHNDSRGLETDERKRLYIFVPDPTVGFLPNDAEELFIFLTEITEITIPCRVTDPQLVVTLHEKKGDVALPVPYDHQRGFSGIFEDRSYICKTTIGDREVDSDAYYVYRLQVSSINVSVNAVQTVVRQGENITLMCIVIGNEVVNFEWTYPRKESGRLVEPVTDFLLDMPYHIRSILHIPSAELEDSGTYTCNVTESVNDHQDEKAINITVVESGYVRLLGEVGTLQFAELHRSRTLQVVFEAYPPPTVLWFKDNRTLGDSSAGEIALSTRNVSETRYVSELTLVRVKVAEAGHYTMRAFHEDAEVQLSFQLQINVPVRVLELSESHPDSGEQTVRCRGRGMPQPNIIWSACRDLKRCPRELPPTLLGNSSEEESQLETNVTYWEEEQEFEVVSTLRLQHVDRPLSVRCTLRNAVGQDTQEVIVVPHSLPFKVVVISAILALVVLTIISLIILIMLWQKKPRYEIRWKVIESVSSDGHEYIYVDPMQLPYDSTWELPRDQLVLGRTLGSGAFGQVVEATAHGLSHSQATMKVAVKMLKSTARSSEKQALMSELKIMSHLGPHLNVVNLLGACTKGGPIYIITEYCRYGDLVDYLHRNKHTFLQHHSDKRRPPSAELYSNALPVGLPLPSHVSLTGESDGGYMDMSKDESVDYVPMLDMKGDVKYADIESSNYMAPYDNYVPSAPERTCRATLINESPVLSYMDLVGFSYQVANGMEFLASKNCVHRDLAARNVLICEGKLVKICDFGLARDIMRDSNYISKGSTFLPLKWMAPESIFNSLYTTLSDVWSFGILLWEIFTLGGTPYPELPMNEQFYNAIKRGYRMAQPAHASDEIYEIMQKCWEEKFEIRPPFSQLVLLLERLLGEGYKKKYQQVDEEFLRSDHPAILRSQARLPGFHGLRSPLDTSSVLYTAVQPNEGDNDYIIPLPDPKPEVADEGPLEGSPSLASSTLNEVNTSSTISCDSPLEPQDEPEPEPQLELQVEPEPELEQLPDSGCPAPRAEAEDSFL
T1 sequence (P35918 20-1345): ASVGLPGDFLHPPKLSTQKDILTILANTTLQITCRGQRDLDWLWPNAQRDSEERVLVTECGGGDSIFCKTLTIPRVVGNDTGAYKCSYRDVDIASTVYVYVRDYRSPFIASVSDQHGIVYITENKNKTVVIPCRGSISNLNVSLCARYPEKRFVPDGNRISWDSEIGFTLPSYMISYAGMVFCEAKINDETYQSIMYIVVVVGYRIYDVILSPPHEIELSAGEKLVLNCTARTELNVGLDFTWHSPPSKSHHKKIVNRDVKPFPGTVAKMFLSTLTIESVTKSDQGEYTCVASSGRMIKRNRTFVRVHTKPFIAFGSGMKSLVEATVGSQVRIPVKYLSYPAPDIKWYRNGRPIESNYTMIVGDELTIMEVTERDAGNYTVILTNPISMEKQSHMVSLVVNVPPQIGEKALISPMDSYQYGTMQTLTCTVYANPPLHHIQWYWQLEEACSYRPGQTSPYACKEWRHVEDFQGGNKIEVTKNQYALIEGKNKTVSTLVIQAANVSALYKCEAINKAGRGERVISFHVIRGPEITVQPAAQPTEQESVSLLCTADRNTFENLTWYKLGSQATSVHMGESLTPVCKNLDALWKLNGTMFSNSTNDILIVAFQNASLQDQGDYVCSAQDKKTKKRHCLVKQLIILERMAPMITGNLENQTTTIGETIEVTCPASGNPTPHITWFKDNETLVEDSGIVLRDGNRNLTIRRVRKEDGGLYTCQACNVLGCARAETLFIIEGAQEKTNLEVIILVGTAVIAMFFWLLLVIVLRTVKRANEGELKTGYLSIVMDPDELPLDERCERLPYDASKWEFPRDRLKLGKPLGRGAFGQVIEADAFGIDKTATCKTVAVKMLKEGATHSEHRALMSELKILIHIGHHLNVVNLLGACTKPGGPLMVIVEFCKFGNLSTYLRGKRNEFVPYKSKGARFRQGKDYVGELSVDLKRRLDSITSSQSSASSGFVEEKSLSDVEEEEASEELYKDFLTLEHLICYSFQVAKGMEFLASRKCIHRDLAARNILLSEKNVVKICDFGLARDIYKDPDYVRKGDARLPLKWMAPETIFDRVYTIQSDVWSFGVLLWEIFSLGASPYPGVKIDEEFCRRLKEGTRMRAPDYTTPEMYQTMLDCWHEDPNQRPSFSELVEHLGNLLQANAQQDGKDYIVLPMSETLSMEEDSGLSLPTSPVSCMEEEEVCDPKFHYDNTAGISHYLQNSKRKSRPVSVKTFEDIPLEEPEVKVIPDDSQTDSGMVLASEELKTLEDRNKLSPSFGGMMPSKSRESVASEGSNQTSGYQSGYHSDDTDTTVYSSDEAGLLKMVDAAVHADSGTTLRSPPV

| Compound | Fik Kinase %Inhibition (FLK-1 receptor) | Met Kinase % Inhibition (MET) | PDGF Kinase %Inhibition (PDGF-R) |
| --- | --- | --- | --- |
| COc1cc(C)cc(O)c1C=C1C(=O)Nc2ccc(CCCl)cc21 [10725/G06] | 21.7% | 35.8% | 27.5% |
| COC(=O)Cc1c(Cl)[nH]c(C=C2C(=O)Nc3ccc(S(=O)(=O)N4CCOCC4)cc32)c1C(=O)OC [10725/F09] | 6.8% | 48.5% | 28.4% |
| COc1ccc(Br)c(C=C2C(=O)Nc3ccc(S(=O)(=O)Nc4ccc(C(F)(F)F)cc4)cc32)c1O [10725/E03] | -0.8% | 60.9% | 10.7% |
| Cc1c(Br)ccc2c1C(=Cc1c(Br)cnn1-c1ccc(Cl)cc1)C(=O)N2 [10725/C10] | 8.7% | -0.6% | 38.5% |
| Cc1ccc(C=C2C(=O)Nc3ccc(S(=O)(=O)N4CCOCC4)cc32)o1 [10725/F04] | -6.9% | 38.1% | -4.6% |
| O=C1Nc2ccc(CCCl)cc2C1=Cc1ccc(N2CCOCC2)cc1 [10725/G08] | -14.8% | 47.3% | 8.3% |
| O=C1Nc2ccc(CCCl)cc2C1=Cc1c(Br)cnn1-c1ccc(Cl)cc1 [10725/G10] | 11.1% | 27.7% | 44.7% |
| O=C1Nc2ccc(S(=O)(=O)N3CCOCC3)cc2C1=Cc1c(Br)cnn1-c1ccc(Cl)cc1 [10725/F10] | 4.8% | 14.2% | 17.9% |
| Cc1cn(C)cc1C=C1C(=O)Nc2ccc(I)cc21 [10726/B06] | 11.3% | 76.1% | 34.1% |
| COc1cc(C)cc(O)c1C=C1C(=O)Nc2ccc(S(=O)(=O)Nc3ccc(C(F)(F)F)cc3)cc21 [10725/E06] | -1.8% | 36.7% | 39.0% |
| CCc1ccc(C=C2C(=O)Nc3ccc(I)cc32)s1 [10726/B10] | 3.7% | 58.5% | 6.2% |
| O=CN1CCN(c2ccc(C=C3C(=O)Nc4ccc(S(=O)(=O)Nc5ccc(C(F)(F)F)cc5)cc43)cc2)CC1 [10725/E07] | 9.7% | 45.3% | 28.9% |
| CNS(=O)(=O)c1ccc2c(c1)C(=Cc1c[nH]cn1)C(=O)N2 [10725/D11] | 13.6% | 100.5% | 23.2% |
| CNS(=O)(=O)c1ccc2c(c1)C(=Cc1c(O)cc(C)cc1OC)C(=O)N2 [10725/D06] | -0.5% | 24.7% | 21.7% |
| O=C1Nc2ccc(CCCl)cc2C1=Cc1c[nH]cn1 [10725/G11] | -28.0% | 25.7% | 22.2% |
| CNS(=O)(=O)c1ccc2c(c1)C(=Cc1ccc(N3CCOCC3)cc1)C(=O)N2 [10725/D08] | 1.8% | 39.2% | 38.5% |
| Cc1ccc(C=C2C(=O)Nc3ccc(Br)c(C)c32)o1 [10725/C04] | -27.3% | 75.9% | 25.1% |
| COc1ccc(Br)c(C=C2C(=O)Nc3ccc(Br)c(C)c32)c1O [10725/C03] | 2.0% | 72.9% | 19.3% |
| CCOC(=O)c1[nH]c(C=C2C(=O)Nc3ccc(Br)c(C)c32)c(C(=O)OC)c1C [10726/C03] | 24.9% | 38.9% | 28.4% |
| O=C1Nc2ccc(I)cc2C1=Cc1cc(O)c2c(c1O)CCCC2 [10726/B07] | -36.5% | 98.5% | -59.5% |
| COc1cc(C)cc(O)c1C=C1C(=O)Nc2ccc(S(=O)(=O)N3CCOCC3)cc21 [10725/F06] | -1.0% | 41.8% | 14.1% |

| Compound | Fik Kinase %Inhibition (FLK-1 receptor) | Met Kinase % Inhibition (MET) | PDGF Kinase %Inhibition (PDGF-R) |
| --- | --- | --- | --- |
| Cc1cc(C=C2C(=O)Nc3ccc(S(=O)(=O)N4CCOCC4)cc32)[nH]n1 [10725/F05] | -0.8% | 15.5% | -5.6% |
| O=C1Nc2ccc(S(=O)(=O)Nc3ccc(C(F)(F)F)cc3)cc2C1=Cc1c(Br)cnn1-c1ccc(Cl)cc1 [10725/E10] | 9.3% | -4.7% | 28.4% |
| CNS(=O)(=O)c1ccc2c(c1)C(=Cc1cc(C)n[nH]1)C(=O)N2 [10725/D05] | 2.3% | 24.5% | 10.7% |
| O=C1Nc2c(Br)cc(Br)cc2C1=Cc1ccc(Br)o1 [10726/A05] | -7.1% | 75.2% | 22.1% |
| CNS(=O)(=O)c1ccc2c(c1)C(=Cc1ccc(C)o1)C(=O)N2 [10725/D04] | 3.6% | 55.1% | 12.2% |
| COc1ccc(C=C2C(=O)Nc3ccc(I)cc32)cc1 [10726/B11] | 7.4% | 64.4% | 23.3% |
| COc1ccc(Br)c(C=C2C(=O)Nc3ccc(S(=O)(=O)N4CCOCC4)cc32)c1O [10725/F03] | 4.3% | 63.2% | -27.1% |
| COc1cc(C)cc(O)c1C=C1C(=O)Nc2ccc(Br)c(C)c21 [10725/C06] | -9.3% | 54.7% | 46.6% |
| O=C1Nc2ccccc2C1=C1C(=O)Nc2c(Br)cc(Br)cc21 [10726/A09] | -4.5% | 70.8% | 16.4% |
| O=C1Nc2ccc(S(=O)(=O)Nc3ccc(C(F)(F)F)cc3)cc2C1=Cc1ccc(N2CCOCC2)cc1 [10725/E08] | 12.1% | 39.7% | 48.6% |
| Cc1cc(C=C2C(=O)Nc3c(Br)cc(Br)cc32)cc(C(C)(C)C)c1O [10726/A04] | 7.6% | 85.7% | 44.2% |
| Cc1ccc(C=C2C(=O)Nc3ccc(CCCl)cc32)o1 [10725/G04] | 6.1% | 47.1% | -8.9% |
| O=C1Nc2ccc(F)cc2C1=C1C(=O)Nc2c(Br)cc(Br)cc21 [10726/A08] | -4.0% | 63.1% | 10.7% |
| CNS(=O)(=O)c1ccc2c(c1)C(=Cc1ccc(N3CCN(C=O)CC3)cc1)C(=O)N2 [10725/D07] | 2.6% | 37.0% | 18.4% |
| Cc1cc(C=C2C(=O)Nc3ccc(I)cc32)cc(C(C)(C)C)c1O [10726/B04] | 16.8% | 78.9% | 39.1% |
| CCc1ccc(C=C2C(=O)Nc3c(Br)cc(Br)cc32)s1 [10726/A10] | 3.7% | 58.9% | 8.1% |
| Cc1cn(C)cc1C=C1C(=O)Nc2c(Br)cc(Br)cc21 [10726/A06] | -4.6% | 54.7% | 22.1% |
| COc1ccc(C=C2C(=O)Nc3c(Br)cc(Br)cc32)cc1 [10726/A11] | 0.5% | 70.8% | 23.3% |
| CCOC(=O)c1[nH]c(C=C2C(=O)Nc3ccc(I)cc32)c(C(=O)OC)c1C [10726/B03] | 11.1% | 81.1% | 16.4% |
| O=C1Nc2ccc(CCCl)cc2C1=Cc1sccc1Br [10725/G02] | -3.7% | 30.8% | -11.8% |
| O=C1Nc2ccc(S(=O)(=O)Nc3ccc(C(F)(F)F)cc3)cc2C1=Cc1sccc1Br [10725/E02] | -5.6% | 40.2% | -8.9% |
